Experimental data published in patent US20060057614A1 (priority 2004, published 2006).

B1: Alexa 647 conjugated Fasciculin 2 (ligand)
chain: TMCYSHTTTSRAILTNCGENSCYRKSRRHPPKMVLGRGCGCPPGDDNLEVKCCTSPDKCNY
notes: Bought reagent; also called FasII

Experiments:
[1] = target: muscle α1β1γδ nicotinic acetylcholine receptor (expressed in Xenopus oocytes); test: cell-based or functional assay
α4β2 nAChR = α4β2 nAChR (Homo sapiens, UniProt P17787+P43681); conditions: cited from earlier work
α7nAChR = α7nAChR (Homo sapiens, UniProt P36544); conditions: cited from earlier work
α7nAChR, sequence (P36544 23-502 limits assumed): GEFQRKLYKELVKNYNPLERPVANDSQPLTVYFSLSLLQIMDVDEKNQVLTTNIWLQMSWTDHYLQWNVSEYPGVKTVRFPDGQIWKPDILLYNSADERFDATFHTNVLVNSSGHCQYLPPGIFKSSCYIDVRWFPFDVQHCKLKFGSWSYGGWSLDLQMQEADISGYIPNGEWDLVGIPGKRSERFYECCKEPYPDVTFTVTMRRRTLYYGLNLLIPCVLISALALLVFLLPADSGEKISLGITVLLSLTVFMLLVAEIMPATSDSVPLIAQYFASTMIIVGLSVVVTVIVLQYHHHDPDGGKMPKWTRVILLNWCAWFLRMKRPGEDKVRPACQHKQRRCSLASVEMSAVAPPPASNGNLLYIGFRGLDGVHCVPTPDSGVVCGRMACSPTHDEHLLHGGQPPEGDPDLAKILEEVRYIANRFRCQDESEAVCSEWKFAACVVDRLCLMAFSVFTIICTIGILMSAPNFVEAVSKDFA

α1β1γδ nAChR = α1β1γδ nAChR (Homo sapiens, UniProt P02708+P07510+Q07001); conditions: cited from earlier work
α1β1γδ nAChR, sequence (P11230 24-501): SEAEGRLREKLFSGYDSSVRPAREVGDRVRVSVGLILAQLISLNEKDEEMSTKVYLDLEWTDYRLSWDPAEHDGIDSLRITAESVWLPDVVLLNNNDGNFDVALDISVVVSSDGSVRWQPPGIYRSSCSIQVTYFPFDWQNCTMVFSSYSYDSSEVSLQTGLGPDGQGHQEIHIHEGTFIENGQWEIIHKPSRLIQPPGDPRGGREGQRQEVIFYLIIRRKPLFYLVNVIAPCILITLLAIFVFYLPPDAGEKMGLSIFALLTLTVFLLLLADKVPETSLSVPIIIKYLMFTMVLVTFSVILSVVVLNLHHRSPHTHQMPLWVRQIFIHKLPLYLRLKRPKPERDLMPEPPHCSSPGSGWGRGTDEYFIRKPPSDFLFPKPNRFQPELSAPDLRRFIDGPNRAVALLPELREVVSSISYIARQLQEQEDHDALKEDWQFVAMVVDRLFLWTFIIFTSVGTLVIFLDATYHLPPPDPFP
α1β1γδ nAChR, sequence (P02708 21-457): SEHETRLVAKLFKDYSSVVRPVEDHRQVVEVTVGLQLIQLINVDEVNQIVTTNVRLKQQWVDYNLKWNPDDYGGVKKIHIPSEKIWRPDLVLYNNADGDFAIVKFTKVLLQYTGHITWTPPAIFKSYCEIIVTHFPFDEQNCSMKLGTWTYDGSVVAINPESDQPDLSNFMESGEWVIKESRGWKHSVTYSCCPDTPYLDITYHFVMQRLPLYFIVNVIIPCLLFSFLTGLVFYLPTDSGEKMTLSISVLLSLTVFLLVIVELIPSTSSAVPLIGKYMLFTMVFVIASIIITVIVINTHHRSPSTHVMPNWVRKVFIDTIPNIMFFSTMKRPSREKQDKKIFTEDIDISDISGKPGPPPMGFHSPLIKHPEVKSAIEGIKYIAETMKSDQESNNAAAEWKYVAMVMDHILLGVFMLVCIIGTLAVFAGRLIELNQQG
α1β1γδ nAChR, sequence (Q07001 22-517): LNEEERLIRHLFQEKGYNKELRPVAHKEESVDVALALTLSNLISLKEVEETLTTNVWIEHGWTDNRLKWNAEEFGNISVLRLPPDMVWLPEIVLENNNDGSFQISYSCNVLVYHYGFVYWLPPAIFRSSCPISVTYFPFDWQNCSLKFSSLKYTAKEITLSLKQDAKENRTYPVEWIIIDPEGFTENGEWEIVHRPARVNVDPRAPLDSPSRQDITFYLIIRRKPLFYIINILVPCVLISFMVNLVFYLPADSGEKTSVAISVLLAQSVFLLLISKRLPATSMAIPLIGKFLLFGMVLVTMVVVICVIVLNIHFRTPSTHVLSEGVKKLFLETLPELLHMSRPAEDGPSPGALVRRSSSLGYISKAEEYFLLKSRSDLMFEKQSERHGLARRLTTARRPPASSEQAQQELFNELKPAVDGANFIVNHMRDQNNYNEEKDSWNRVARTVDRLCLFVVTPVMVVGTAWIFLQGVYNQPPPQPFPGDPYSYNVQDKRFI
α1β1γδ nAChR, sequence (P07510 23-517): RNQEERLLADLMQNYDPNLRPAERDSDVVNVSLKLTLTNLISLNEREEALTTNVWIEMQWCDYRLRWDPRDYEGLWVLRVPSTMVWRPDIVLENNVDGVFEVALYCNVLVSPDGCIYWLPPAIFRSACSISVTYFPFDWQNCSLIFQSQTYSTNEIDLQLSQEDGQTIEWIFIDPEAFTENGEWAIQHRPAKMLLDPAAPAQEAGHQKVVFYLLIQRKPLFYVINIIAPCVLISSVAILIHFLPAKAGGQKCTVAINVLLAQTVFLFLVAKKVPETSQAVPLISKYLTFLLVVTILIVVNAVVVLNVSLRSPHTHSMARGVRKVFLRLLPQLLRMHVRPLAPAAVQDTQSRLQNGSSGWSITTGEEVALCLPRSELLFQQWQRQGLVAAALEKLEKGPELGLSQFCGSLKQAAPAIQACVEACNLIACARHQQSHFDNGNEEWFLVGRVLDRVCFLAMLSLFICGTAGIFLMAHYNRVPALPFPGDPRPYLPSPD

α3β2 nAChR = α3β2 nAChR (Homo sapiens, UniProt P17787+P32297); conditions: cited from earlier work
α3β2 nAChR, sequence (P32297 32-505 limits assumed): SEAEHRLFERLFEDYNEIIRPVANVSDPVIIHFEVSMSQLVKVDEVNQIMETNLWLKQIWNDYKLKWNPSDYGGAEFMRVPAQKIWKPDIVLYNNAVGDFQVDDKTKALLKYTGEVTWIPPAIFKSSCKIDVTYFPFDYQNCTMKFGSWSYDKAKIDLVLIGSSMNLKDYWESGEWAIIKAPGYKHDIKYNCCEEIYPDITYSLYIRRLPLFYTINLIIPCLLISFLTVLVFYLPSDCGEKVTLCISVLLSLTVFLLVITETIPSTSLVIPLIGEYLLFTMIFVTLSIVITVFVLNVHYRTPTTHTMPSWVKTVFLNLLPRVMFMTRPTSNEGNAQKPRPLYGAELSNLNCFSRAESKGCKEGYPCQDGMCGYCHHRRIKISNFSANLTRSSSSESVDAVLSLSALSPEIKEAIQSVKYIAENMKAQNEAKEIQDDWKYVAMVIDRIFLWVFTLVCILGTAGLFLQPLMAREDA
α3β2 nAChR, sequence (P17787 26-502 limits assumed): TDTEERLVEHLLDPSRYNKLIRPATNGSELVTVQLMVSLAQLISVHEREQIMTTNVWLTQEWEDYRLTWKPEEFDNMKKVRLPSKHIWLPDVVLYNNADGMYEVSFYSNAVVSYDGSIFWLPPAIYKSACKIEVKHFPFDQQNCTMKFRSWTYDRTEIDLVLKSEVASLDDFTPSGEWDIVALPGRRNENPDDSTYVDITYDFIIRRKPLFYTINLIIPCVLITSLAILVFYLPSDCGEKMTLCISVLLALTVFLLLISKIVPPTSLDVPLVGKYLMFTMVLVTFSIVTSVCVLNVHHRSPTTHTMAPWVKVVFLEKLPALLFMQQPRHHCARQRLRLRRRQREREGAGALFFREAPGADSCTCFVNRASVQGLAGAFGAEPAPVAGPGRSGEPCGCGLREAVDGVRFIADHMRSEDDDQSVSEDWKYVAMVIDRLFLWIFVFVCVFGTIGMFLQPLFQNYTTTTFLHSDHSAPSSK

[2] = target: T1, zebrafish acetylcholinesterase (synaptic, in muscle) (zebrafish, UniProt Q9DDE3 24-634)
T1 construct: whole, on cells; also called synaptic acetylcholinesterase

α4β2 nAChR, sequence (P43681 29-627): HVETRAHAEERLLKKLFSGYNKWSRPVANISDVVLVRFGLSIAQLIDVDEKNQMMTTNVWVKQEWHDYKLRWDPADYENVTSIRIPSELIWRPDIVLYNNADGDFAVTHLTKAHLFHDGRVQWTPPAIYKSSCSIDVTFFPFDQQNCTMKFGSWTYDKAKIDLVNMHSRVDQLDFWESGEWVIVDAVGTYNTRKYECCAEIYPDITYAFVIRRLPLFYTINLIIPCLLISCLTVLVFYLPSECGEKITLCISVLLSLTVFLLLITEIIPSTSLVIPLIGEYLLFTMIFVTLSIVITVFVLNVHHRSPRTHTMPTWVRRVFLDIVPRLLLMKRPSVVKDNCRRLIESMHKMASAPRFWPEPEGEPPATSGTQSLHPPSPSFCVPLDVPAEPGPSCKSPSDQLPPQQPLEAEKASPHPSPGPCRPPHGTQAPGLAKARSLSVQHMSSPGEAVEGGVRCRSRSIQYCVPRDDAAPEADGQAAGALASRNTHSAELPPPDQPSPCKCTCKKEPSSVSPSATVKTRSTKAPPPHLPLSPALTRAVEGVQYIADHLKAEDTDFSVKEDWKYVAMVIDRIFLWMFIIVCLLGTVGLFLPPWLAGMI
α4β2 nAChR, sequence (P17787 26-502): as the sequence (P17787 26-502 limits assumed) above

Molecule | Affinity (α4β2 nAChR) | Affinity (α7nAChR) | Affinity (α1β1γδ nAChR) | also measured
tethered α-bungarotoxin | – | – | – | average peak ACh current, Xenopus oocytes (receptor alone: 8.46 +/-3.7 µA) [1]: 0 µA
α-bungarotoxin | 100 µM | 0.95 nM | 0.4 nM | –
α-conotoxin MII | – | – | – | Affinity (α3β2 nAChR): 0.5 nM
κ-bungartotoxin | >0.1 µM | 1 to 12 nM | 1000 nM | –
B1 | – | – | – | binding result [2]: binds
